Results on four molecules are retold here after patent US20100069387A1, “IKK Inhibitors for the Treatment of Endometriosis” (priority 2005, published 2010).

For data set [1] the following is noted: cited from earlier work.
Data set [2] has as its system endometriotic lesions. Briefly: Nude mouse xenograft model of endometriosis (human endometrial tissue injected in ovarectomized nude mice). Format: in vivo. The note with it: for Lesion (% Progesterone) Compared to progesterone treated group, decrease: treatment started 10 days after tissue injection. As for the experimental part: Human endometrial tissue was injected in ovarectomized nude mice to establish the disease (Bruner-Tran et al 2002). In brief, endometrial biopsies obtained from normal volunteers or from endometriotic patients were cut into small pieces and cultured in the presence of estradiol for 24 h. Treated tissues, were injected either subcutaneously or intraperitoneally into ovarectomized nude mice with estradiol implant. Within 2-4 days of injection, ectopic endometriotic lesions develop in animals. Treatment with either progesterone or IKK inhibitor-5 (1-(4-{4-[4-(4-Chloro-phenyl)-pyrimidin-2-ylamino]-benzoyl}-piperazin-1-yl)-ethanone) was started 10 days following the injection of tissue. The compound was administered at a dose of 10 mg/kg and 30 mg/kg/animal for 15 days. […] Following the completion of treatment, animals were sacrificed, lesions developed from the transplanted tissue found in both subcutaneous and intraperitoneal sites, were measured (both size and number).
The IKK inhibitor treatment had no effect on the uterine weight and size of the animals.

Data set [3] has as its system endometriotic lesions. The note with it: control treatment; earlier work using this model; cited from earlier work.
Data set [4] relates to endometriotic lesions. The conditions noted are these: experimental model of endometriosis; cited from earlier work.
The mark [5] stands for this setting: 10 mg/kg × 15 days, listed as IKK inhibitor.
The mark [6] stands for this setting: 30 mg/kg × 15 days, listed as IKK inhibitor.

On to `C#C[C@]1(O)CC[C@H]2[C@@H]3CCC4=Cc5oncc5C[C@]4(C)[C@H]3CC[C@@]21C` [Danazol], for which the recurrence rates in data set [1] (after up to 4 years) is 40%-50%. The “patients suffering from pain with improved symptoms” value in data set [1] (endometriosis patients) is 66-100%.
In the case of `CC(=O)N1CCN(C(=O)c2ccc(Nc3nccc(-c4ccc(Cl)cc4)n3)cc2)CC1` [IKK inhibitor-5, 1-(4-{4-[4-(4-Chloro-phenyl)-pyrimidin-2-ylamino]-benzoyl}-piperazin-1-yl)-ethanone], the “Lesion size, decrease” value in the data set on endometriotic lesions [2] (10 mg/kg × 15 days) is on record as 90% Decrease; with endometriotic lesions [2] (setting [5]), 90%; in the data set with endometriotic lesions [2] (30 mg/kg × 15 days), 75% Decrease; in the data set with endometriotic lesions [2] (setting [6]) it was 75%. Also, the “Lesion (% Progesterone) Compared to progesterone treated group, decrease” value with endometriotic lesions [2] (10 mg/kg × 15 days) came to 125% Decrease; with endometriotic lesions [2] (setting [5]), 125%; with endometriotic lesions [2] (30 mg/kg × 15 days) it was 100% Decrease; with endometriotic lesions [2] (setting [6]), 100%. The “effect on the uterine weight and size of the animals” value in the data set with endometriotic lesions [2] (nude mice, 15 days treatment) is given as “no effect”.
As for `CC(=O)[C@H]1CC[C@H]2[C@@H]3CCC4=CC(=O)CC[C@]4(C)[C@H]3CC[C@]12C` [progesterone], in the data set with endometriotic lesions [3], the disease progression entry was “prevents disease progression”.

B1: rh-TBP-1: recombinant human TNFα binding protein (protein, UniProt P19438 30-211, looked up)
extracellular domain: LVPHLGDREKRDSVCPQGKYIHPQNNSICCTKCHKGTYLYNDCPGPGQDTDCRECESGSFTASENHLRHCLSCSKCRKEMGQVEISSCTVDRDTVCGCRKNQYRHYWSENLFQCFNCSLCLNGTVHLSCQEKQNTVCTCHAGFFLRENECVSCSNCKKSLECTKLCLPQIENVKGTEDSGTT
modifications: extracellular domain
On to B1, for which, in the data set with endometriotic lesions [4], the “size and severity of endometriotic lesions” value was “effective in reducing the size and severity of endometriotic lesions”.
